The results in this text go back to patent US8802695B2, “Apoptosis signal-regulating kinase 1 inhibitors” (Takeda Pharmaceutical Company Limited, priority 2010, dated 2014).

Assay [1] addresses T1, ASK1 (Homo sapiens (Human), UniProt Q99683). In words: Scintillation assay for inhibitory effect against ASK1 (Example B; myelin basic protein substrate, [γ-32P]ATP). Format: biochemical. The note with it: 2.5 μM ATP solution, read-out: Enzyme Activity B IC50. From the text: (§1) The inhibitory effect of the compound of the invention on ASK1 may be evaluated by evaluating the phosphorylating activity of the enzyme on a known substrate with or without the presence of the test compound. Example B provides such an assay where myelin basic protein (Wako) is used as substrate and detection is by scintillation counting. It should be understood other substrates and detection mechanism may be used. A commercially available a kit, Cisbio's HTRF® KinEASE™ STK kit, has shown to be useful for evaluating ASK1 activity. The assay uses an anti-phosphoseric specific, Eu^3+-Cryptate labeled antibody to mark the phosphorylated product of ASK1 on a biotinylated kinase substrate, and detection is by time resolved fluorescence using XL665 labeled streptavidin. The fluorescence intensity is proportional to the amount of product formation. Example C provides the assay protocol.
Cloning of cDNA encoding human ASK1 was conducted by PCR using primers, 5′-[…] […]-3′ (SEQ ID NO: 1) and 5′-AAAGCGGCCGCTCAA […]-3′ (SEQ ID NO: 2), from human heart cDNA library (Becton, Dickinson and Company). The PCR product was subjected to agarose gel (1%) electrophoresis, a 2.2 kb DNA fragment containing an ASK1 gene was recovered from the gel, and then digested with restriction enzymes, NotI and SalI, and inserted into a plasmid pFASTBAC1 (Invitrogen) to prepare a plasmid pFB-ASK1. The insert was verified by sequencing. Recombinant baculovirus was prepared according to the procedure of the Bac-to-Bac baculovirus expression system (Invitrogen).
Sf-21 cells were seeded to achieve 1×10^6 cells/mL in 100 mL of Sf-900 II SFM medium (Invitrogen) which contains 10% fetal calf serum and then cultured at 27° C. for 24 hrs. To express ASK1 in cells, 0.15 mL of the recombinant baculovirus virus stock was added to cells, and the then cultured for 60 hrs. The cells were separated from the culture solution by centrifugation at 3000 rpm for 10 min and washed once with PBS. The cells were suspended in 10 mL of lysis buffer (25 mM HEPES (pH 7.5), 1% Triton X, 130 mM NaCl, 1 mM EDTA, 1 mM DTT, 25 mM (3-glycerophosphate, Protease inhibitor complete (Roche), 1 mM sodium orthovanadate) and ruptured by four times of treatment with a homogenizer (POLYTRON) at 20000 rpm for 30 seconds. Active ASK1 protein was purified from a supernatant obtained by centrifugal separation at 40000 rpm for 45 min using anti-FLAG M2 Affinity Gel (Sigma).
Scintillation Assay for Measuring the Inhibitory Effect of Exemplified Compounds of the Invention Against ASK1
The test compounds (2.5 μL) dissolved in DMSO were added to wells containing 37.5 μL of the reaction solution (25 mM HEPES (pH 7.5), 10 mM magnesium acetate, 1 mM DTT) including 30 ng of active ASK1 protein and 1 μg of myelin basic protein (Wako), and incubated at room temperature for 5 min. To start the reaction, 10 μL of ATP solution (2.5 μM ATP, 0.1 μCi [γ-^32P]ATP) was added to wells. After incubating at room temperature for 30 min, the reaction was terminated by adding 50 μL of 20% TCA solution. The reaction solution was incubated at 4° C. for 30 min and an acid-insoluble fraction was transferred onto a GF/C filter (Packard) with Cell Harvester (Packard), and washed with 250 mM phosphoric acid. After drying at 45° C. for 60 min., 40 μL of Microscint 0 (Packard) was added and the radioactivity was measured with TopCount (Packard). The concentrations (IC50 value) of the test compounds necessary for 50% inhibition of kinase activity were calculated by PRISM 3.0 (Graphpad Software).
Target sequence in this assay (Q99683 650-1374): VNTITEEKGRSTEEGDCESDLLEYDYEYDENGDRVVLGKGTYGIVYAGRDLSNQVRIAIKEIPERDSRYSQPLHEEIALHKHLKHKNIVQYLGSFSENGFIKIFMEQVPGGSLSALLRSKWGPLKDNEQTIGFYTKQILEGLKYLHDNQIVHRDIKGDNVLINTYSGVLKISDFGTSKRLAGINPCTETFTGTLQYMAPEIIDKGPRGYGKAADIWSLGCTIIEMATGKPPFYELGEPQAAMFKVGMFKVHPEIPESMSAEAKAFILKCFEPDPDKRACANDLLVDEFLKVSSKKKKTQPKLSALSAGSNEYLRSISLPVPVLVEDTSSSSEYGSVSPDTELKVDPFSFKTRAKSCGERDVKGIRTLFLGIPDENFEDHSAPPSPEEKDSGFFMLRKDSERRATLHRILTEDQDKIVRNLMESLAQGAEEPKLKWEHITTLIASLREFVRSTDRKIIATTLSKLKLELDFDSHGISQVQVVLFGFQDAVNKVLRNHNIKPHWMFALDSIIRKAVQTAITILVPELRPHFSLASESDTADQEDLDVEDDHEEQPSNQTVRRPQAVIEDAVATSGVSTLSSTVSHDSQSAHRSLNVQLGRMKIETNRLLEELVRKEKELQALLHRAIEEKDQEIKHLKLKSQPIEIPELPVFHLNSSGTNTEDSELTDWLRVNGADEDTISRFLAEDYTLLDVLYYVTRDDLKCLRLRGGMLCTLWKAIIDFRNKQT

For assay [2], the target named is T1, ASK1. The assay can be described thus: Homogeneous Time-Resolved Fluorescence (HTRF) assay for inhibitory effect against ASK1 (Example C; KinEASE STK S3 kit). Format: biochemical. To be noted: 25 nM ASK1, 100 μM ATP, read-out: Enzyme Activity C IC50.
Text: as §1
Target sequence in this assay (Q99683 649-946): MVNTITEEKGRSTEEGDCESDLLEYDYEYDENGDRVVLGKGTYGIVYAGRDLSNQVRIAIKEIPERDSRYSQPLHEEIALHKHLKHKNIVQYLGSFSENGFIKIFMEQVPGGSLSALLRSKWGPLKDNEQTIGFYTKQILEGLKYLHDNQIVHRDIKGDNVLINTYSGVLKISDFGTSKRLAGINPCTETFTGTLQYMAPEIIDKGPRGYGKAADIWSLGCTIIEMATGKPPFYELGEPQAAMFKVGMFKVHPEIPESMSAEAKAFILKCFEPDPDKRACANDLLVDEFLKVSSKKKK
Homogeneous Time-Resolved Fluorescence (HTRF) Assay for Measuring the Inhibitory Effect of Exemplified Compounds of the Invention Against ASK1
Recombinant human ASK1 is purchased from Millipore (Cat #14-606). The enzymatic assay of ASK1 is set up by using HTRF® KinEASE™ STK S3 kit, the Universal Assay for Serine/Threonine Kinases kit from CisBio.
The inhibitory properties of compounds to ASK1 may be determined using a white 384-well-plate format under the following reaction conditions: 25 nM ASK1, 1 μM CisBio STK S3-biotion peptide, 100 μM ATP, and 1%-2% DMSO in kinase assay buffer of 50 mM HEPES, pH 7.3, 10 mM NaCl, 10 mM MgCl2, 0.01% Brij35, 0.2 mM EDTA, and 1 mM DTT. Reaction product is determined quantitatively by HTRF after the addition of detection reagent SA-XL665 and STK-antibody-cryptate.
The assay reaction may be initiated as follows: 2 μl of the mixture of 3 μM CisBio STK S3-biotion peptide and 300 μM ATP with 2 μl of test compound (2 fold serial dilutions for 11 data points for each inhibitor) containing 3%-6% DMSO are added to each well of the plate, followed by the addition of 2 μL of 75 nM ASK1 to initiate the reaction (final enzyme concentration was 25 nM for ASK1). The reaction mixture may then be incubated at room temperature for 1 hour, and quenched and developed by the addition of 6 μL of 100-fold diluted STK-antibody-Cryptate and 250 nM SA-XL665 in Cisbio HTRF detection buffer (50 mM HEPES, pH7.0, 0.1% BSA, 0.8 M KF, and 20 mM EDTA). The fluorescence intensity is measured at 620 nm (Cryptate) and 665 nm (XL665) after a 1-2 hour incubation at room temperature. A ratio is calculated (665/620) for each well and is fitted to the standard IC50 curve to determine inhibition constants (IC50).

On to `CC(C)(O)c1ccc(C(=O)Nc2cc3c(ccn3CC3CC3)cn2)cc1` [Compound 9, N-(1-(cyclopropylmethyl)-1H-pyrrolo[3,2-c]pyridin-6-yl)-4-(2-hydroxypropan-2-yl)benzamide], for which the concentration for half-maximal inhibition (IC50) is 81 nM at ASK1 [1] and 237 nM at ASK1 [2].

Take `CC(C)(O)c1ccc(C(=O)Nc2cc3c(cn2)c(Br)cn3CC2CC2)cc1` [Compound 10, N-(3-bromo-1-(cyclopropylmethyl)-1H-pyrrolo[3,2-c]pyridin-6-yl)-4-(2-hydroxypropan-2-yl)benzamide]: the half-maximal inhibitory concentration (IC50) was determined as 3 nM on ASK1 [1] and 62 nM on ASK1 [2].

On to `CCn1cc(Br)c2cnc(NC(=O)c3ccc(C(C)(C)O)cc3)cc21` [Compound 11, N-(3-bromo-1-ethyl-1H-pyrrolo[3,2-c]pyridin-6-yl)-4-(2-hydroxypropan-2-yl)benzamide], for which the IC50 at ASK1 [1] came to 3 nM; at ASK1 [2], 8 nM.

Take `CCn1cc(C)c2cnc(NC(=O)c3ccc(C(C)(C)O)cc3)cc21` [Compound 12, N-(1-ethyl-3-methyl-1H-pyrrolo[3,2-c]pyridin-6-yl)-4-(2-hydroxypropan-2-yl)benzamide]: the IC50 at ASK1 [1] was 7 nM; on ASK1 [2] it was 20 nM.

On to `CCn1ccc2cnc(NC(=O)c3ccc([C@@](C)(O)CO)cc3)cc21` [Compound 13, (R)-4-(1,2-dihydroxypropan-2-yl)-N-(1-ethyl-1H-pyrrolo[3,2-c]pyridin-6-yl)benzamide], for which the 50% inhibitory concentration (IC50) on ASK1 [1] amounted to 55 nM; at ASK1 [2], 64 nM.

As to `Cn1cc(Br)c2cnc(NC(=O)c3ccc(C(C)(C)O)cc3)cc21` [Compound 15, N-(3-bromo-1-methyl-1H-pyrrolo[3,2-c]pyridin-6-yl)-4-(2-hydroxypropan-2-yl)benzamide], the IC50 stood at 5 nM at ASK1 [1] and 10 nM at ASK1 [2].

As to `Cn1cc(Br)c2cnc(NC(=O)c3ccc([C@@](C)(O)CO)cc3)cc21` [Compound 16, (R)—N-(3-bromo-1-methyl-1H-pyrrolo[3,2-c]pyridin-6-yl)-4-(1,2-dihydroxypropan-2-yl)benzamide], the half-maximal inhibitory concentration (IC50) is 7 nM on ASK1 [1] and 20 nM on ASK1 [2].

With `C[C@](O)(CO)c1ccc(C(=O)Nc2cc3c(ccn3C3CC3)cn2)cc1` [Compound 17, (R)—N-(1-cyclopropyl-1H-pyrrolo[3,2-c]pyridin-6-yl)-4-(1,2-dihydroxypropan-2-yl)benzamide], the IC50 on ASK1 [1] turned out to be 69 nM; at ASK1 [2], 214 nM.

As to `CCn1cc(C)c2cnc(NC(=O)c3ccc([C@@](C)(O)CO)cc3)cc21` [Compound 18, (R)-4-(1,2-dihydroxypropan-2-yl)-N-(1-ethyl-3-methyl-1H-pyrrolo[3,2-c]pyridin-6-yl)benzamide], the half-inhibitory concentration (IC50) amounted to 14 nM at ASK1 [1] and 17 nM on ASK1 [2].

For the molecule `Cc1cn(C)c2cc(NC(=O)c3ccc(C(C)(C)O)cc3)ncc12` [Compound 19, N-(1,3-dimethyl-1H-pyrrolo[3,2-c]pyridin-6-yl)-4-(2-hydroxypropan-2-yl)benzamide], the half-inhibitory concentration (IC50) on ASK1 [1] was 19 nM; on ASK1 [2], 29 nM.

Take `CCn1cc(Br)c2cnc(NC(=O)c3ccc([C@@](C)(O)CO)cc3)cc21` [Compound 20, (R)—N-(3-bromo-1-ethyl-1H-pyrrolo[3,2-c]pyridin-6-yl)-4-(1,2-dihydroxypropan-2-yl)benzamide]: the values for the IC50 on ASK1 [1] and at ASK1 [2] were 2 nM and 10 nM, respectively.

As for `CC(C)(O)c1ccc(C(=O)Nc2cc3c(ccn3CS(C)(=O)=O)cn2)cc1` [Compound 21, 4-(2-hydroxypropan-2-yl)-N-(1-(methylsulfonylmethyl)-1H-pyrrolo[3,2-c]pyridin-6-yl)benzamide], the IC50 on ASK1 [2] stood at 12400 nM.

Regarding `C[C@](O)(CO)c1ccc(C(=O)Nc2cc3c(cn2)c(Br)cn3C2CC2)cc1` [Compound 22, (R)—N-(3-bromo-1-cyclopropyl-1H-pyrrolo[3,2-c]pyridin-6-yl)-4-(1,2-dihydroxypropan-2-yl)benzamide], the IC50 came out at 2 nM on ASK1 [1] and 7 nM on ASK1 [2].

`C[C@](O)(CO)c1ccc(C(=O)Nc2cc3c(cn2)c(Cl)cn3C2CC2)cc1` [Compound 23, (R)—N-(3-chloro-1-cyclopropyl-1H-pyrrolo[3,2-c]pyridin-6-yl)-4-(1,2-dihydroxypropan-2-yl)benzamide]: the concentration for half-maximal inhibition (IC50) on ASK1 [1] was found to be 4 nM; on ASK1 [2] it was 6 nM.

`Cn1cc(Cl)c2cnc(NC(=O)c3ccc(C(C)(C)O)cc3)cc21` [Compound 24, N-(3-chloro-1-methyl-1H-pyrrolo[3,2-c]pyridin-6-yl)-4-(2-hydroxypropan-2-yl)benzamide]: the IC50 was found to be 11 nM on ASK1 [1] and 18 nM at ASK1 [2].

Turning to `Cn1c(Cl)c(Cl)c2cnc(NC(=O)c3ccc(C(C)(C)O)cc3)cc21` [Compound 25, N-(2,3-dichloro-1-methyl-1H-pyrrolo[3,2-c]pyridin-6-yl)-4-(2-hydroxypropan-2-yl)benzamide], the half-maximal inhibitory concentration (IC50) turned out to be 60 nM at ASK1 [1] and 146 nM on ASK1 [2].

In the case of `CCn1ccc2cnc(NC(=O)c3ccc([C@@](C)(O)CO)c(C)c3)cc21` [Compound 27, (R)-4-(1,2-dihydroxypropan-2-yl)-N-(1-ethyl-1H-pyrrolo[3,2-c]pyridin-6-yl)-3-methylbenzamide], the concentration for half-maximal inhibition (IC50) at ASK1 [2] stood at 528 nM.

Turning to `CC(C)(CO)c1ccc(C(=O)Nc2cc3c(cn2)c(Cl)cn3C2CC2)cc1` [Compound 28, N-(3-chloro-1-cyclopropyl-1H-pyrrolo[3,2-c]pyridin-6-yl)-4-(1-hydroxy-2-methylpropan-2-yl)benzamide], on ASK1 [2], the half-inhibitory concentration (IC50) is 16 nM.

For `Cn1c(Cl)c(Cl)c2cnc(NC(=O)c3ccc([C@@](C)(O)CO)cc3)cc21` [Compound 32, (R)—N-(2,3-dichloro-1-methyl-1H-pyrrolo[3,2-c]pyridin-6-yl)-4-(1,2-dihydroxypropan-2-yl)benzamide], the concentration for half-maximal inhibition (IC50) at ASK1 [2] is 122 nM.

Turning to `CCn1cc(Cl)c2cnc(NC(=O)c3ccc([C@@](C)(O)CO)c(C)c3)cc21` [Compound 33, (R)—N-(3-chloro-1-ethyl-1H-pyrrolo[3,2-c]pyridin-6-yl)-4-(1,2-dihydroxypropan-2-yl)-3-methylbenzamide], on ASK1 [2], the IC50 is 41 nM.
